# In US11229664B2, “Treatment of myelosuppression” (priority 2012, dated 2022):
# “And” between values parts separate entries of the source, which are not always exact repeats. Equal entries are not always repeated.
# Key:
# platelets = assay: Clinical trial, metastatic pancreatic cancer: platelet count / thrombocytopenia grade; type: in vivo, human; design: Platelet count at start of cycle, Cycle 4 / Platelet count: unit: ×10^3/μl blood
# Description: Male and non-pregnant, non-lactating, female patients, aged 18 to 75, with histologically confirmed metastatic adenocarcinoma of the pancreas were enrolled in the trial. […] Treatment consisted of a series of 28-day cycles, wherein the last day of one cycle (e.g., day 28, cycle 1) was immediately followed by the first day of the next cycle (e.g., day 1, cycle 2). […] Nab-paclitaxel and gemcitabine therapy was given as described in the prescribing information for Abraxane® and Gemzar®. See also, Von Hoff et al., 2011, J. […] As a substantially non-anticoagulant heparinoid, ODSH can be administered at a dose that is greater than the fully anticoagulant dose of unfractionated heparin, without concern for anticoagulant effect, as shown in the Results below. An initial run-in period was conducted in which ten patients were treated with the gemcitabine, nab-paclitaxel, and ODSH regimen described above. After all ten patients had completed at least one 28-day cycle, the data were reviewed and an open-label randomized study initiated, with two arms (ODSH arm and Control arm). In the ODSH arm, the dosing regimen was the same as in the run-in period (gemcitabine, nab-paclitaxel, and ODSH). In the Control arm, patients were given the same gemcitabine and nab-paclitaxel regimen as in the run-in period, but without ODSH. […] Platelet counts, total white blood cell counts, and absolute neutrophil counts were performed. Grading of thrombocytopenia and/or neutropenia was performed according to the following standards: [table]
# white blood cells = assay: Clinical trial, metastatic pancreatic cancer: total white blood cell count; type: in vivo, human; conditions: individual patients, ODSH adjunctive to gemcitabine and nab-paclitaxel
# Description: Male and non-pregnant, non-lactating, female patients, aged 18 to 75, with histologically confirmed metastatic adenocarcinoma of the pancreas were enrolled in the trial. […] In addition, patients were screened for blood chemistry levels, including serum creatinine levels within normal limits, serum transaminase levels of […] the upper limit of normal, and bilirubin levels of 1.5 times the upper limit of normal […].
# Treatment consisted of a series of 28-day cycles, wherein the last day of one cycle (e.g., day 28, cycle 1) was immediately followed by the first day of the next cycle (e.g., day 1, cycle 2). In each 28-day treatment cycle, patients were dosed at days 1, 8, and 15 (three weeks of medication followed by one week of rest) as follows. First, nab-paclitaxel at 125 mg/m^2 was administered as an intravenous infusion over 30 minutes. […] Nab-paclitaxel and gemcitabine therapy was given as described in the prescribing information for Abraxane® and Gemzar®. See also, Von Hoff et al., 2011, J. Clinical Oncology 29:1-7). […]
# An initial run-in period was conducted in which ten patients were treated with the gemcitabine, nab-paclitaxel, and ODSH regimen described above. After all ten patients had completed at least one 28-day cycle, the data were reviewed and an open-label randomized study initiated, with two arms (ODSH arm and Control arm). In the ODSH arm, the dosing regimen was the same as in the run-in period (gemcitabine, nab-paclitaxel, and ODSH). In the Control arm, patients were given the same gemcitabine and nab-paclitaxel regimen as in the run-in period, but without ODSH.
# Blood was drawn before treatment administration on days 1, 8, and 15 of each 28 day cycle. Platelet counts, total white blood cell counts, and absolute neutrophil counts were performed. Grading of thrombocytopenia and/or neutropenia was performed according to the following standards: […]
substance,measurement,setting,value
"substantially 2-O, 3-O desulfated heparin [ODSH]",Patients with no thrombocytopenia after two doses of treatment,"platelets; day 15, first cycle, ODSH adjunct to gemcitabine/nab-paclitaxel",40%
same,Patients with no thrombocytopenia after five doses of treatment,"platelets; day 15 of cycle 2, ODSH adjunct to gemcitabine/nab-paclitaxel",7 out of 10
same,Patients thrombocytopenic at the beginning of cycles 2 and 3,"platelets; mild (Grade 1), after three or six doses of gemcitabine and nab-paclitaxel with ODSH",one
same,Platelet count,"platelets; open-label randomized trial, per arm, Cycle 1 Day 1",248
same,Platelet count,"platelets; open-label randomized trial, per arm, Cycle 1 Day 15",143
same,Platelet count,"platelets; open-label randomized trial, per arm, Cycle 2 Day 1",336
same,Platelet count,"platelets; open-label randomized trial, per arm, Cycle 2 Day 15",135
same,Platelet count,"platelets; open-label randomized trial, per arm, Cycle 3 Day 1",393
same,Platelet count,"platelets; open-label randomized trial, per arm, Cycle 3 Day 15",171
same,Platelet count,"platelets; open-label randomized trial, per arm, Cycle 4 Day 1",404
same,Platelet count,"platelets; open-label randomized trial, per arm, Cycle 4 Day 15",156
same,Platelet count,"platelets; open-label randomized trial, per arm, Cycle 5 Day 1",389
same,Platelet count,"platelets; open-label randomized trial, per arm, Cycle 5 Day 15",121
same,Platelet count,"platelets; open-label randomized trial, per arm, Cycle 6 Day 1",371
same,Platelet count,"platelets; open-label randomized trial, per arm, Cycle 6 Day 15",132
same,"Platelet Count, Screen","platelets; prior to entry into the clinical trial protocol, individual patients",321 ×10^3/μl blood and 187 ×10^3/μl blood and 269 ×10^3/μl blood and 267 ×10^3/μl blood and 166 ×10^3/μl blood and 271 ×10^3/μl blood and 204 ×10^3/μl blood and 505 ×10^3/μl blood
same,Platelet count,"platelets; randomized stage, individual patients, Cycle 1 Day 15",231 and 216 and 121 and 103 and 199 and 172 and 162 and 232
same,Platelet count,"platelets; randomized stage, individual patients, Cycle 2 Day 15",110 and 156 and 95 and 74 and 92 and 165
same,Platelet count,"platelets; randomized stage, individual patients, Cycle 3 Day 15",124 and 74 and 76 and 96
same,Platelet count,"platelets; randomized stage, individual patients, Cycle 4 Day 15",31 and 138
same,"Platelet counts, ODSH arm vs Control arm","platelets; randomized stage, gemcitabine + nab-paclitaxel with or without ODSH",statistically significant difference
same,"Median and mean platelet counts at day 15 of the first cycle, ODSH arm vs patients not receiving ODSH","platelets; randomized trial, 5 patients in each arm, p=0.013 unpaired t-test",significantly higher
same,"Platelet recovery by day 1 of a subsequent cycle, ODSH arm vs control arm","platelets; randomized trial, p=0.0004 after 6 cycles, unpaired t-test",enhanced
same,White Blood Cell Counts,white blood cells; Cycle 1 Day 1,6.8 ×10^3/μl blood and 7.7 ×10^3/μl blood and 7.3 ×10^3/μl blood and 5.0 ×10^3/μl blood and 4.6 ×10^3/μl blood and 6.5 ×10^3/μl blood and 5.7 ×10^3/μl blood and 8.7 ×10^3/μl blood and 6.0 ×10^3/μl blood and 7.2 ×10^3/μl blood
same,White Blood Cell Counts,white blood cells; Cycle 1 Day 8,4.4 ×10^3/μl blood and 6.2 ×10^3/μl blood and 2.7 ×10^3/μl blood and 5.3 ×10^3/μl blood and 2.8 ×10^3/μl blood and 5.1 ×10^3/μl blood and 2.3 ×10^3/μl blood and 5.7 ×10^3/μl blood and 3.4 ×10^3/μl blood and 4.1 ×10^3/μl blood
same,White Blood Cell Counts,white blood cells; Cycle 1 Day 15,4.2 ×10^3/μl blood and 5.1 ×10^3/μl blood and 2.1 ×10^3/μl blood and 6.0 ×10^3/μl blood and 2.0 ×10^3/μl blood and 3.2 ×10^3/μl blood and 2.7 ×10^3/μl blood (2×) and 5.4 ×10^3/μl blood and 1.5 ×10^3/μl blood
same,White Blood Cell Counts,white blood cells; Cycle 2 Day 1,4.9 ×10^3/μl blood and 7.8 ×10^3/μl blood and 17.8 ×10^3/μl blood and 5.9 ×10^3/μl blood and 6.5 ×10^3/μl blood and 5.7 ×10^3/μl blood and 11.0 ×10^3/μl blood and 3.4 ×10^3/μl blood and 10.8 ×10^3/μl blood
same,White Blood Cell Counts,white blood cells; Cycle 2 Day 8,10.2 ×10^3/μl blood and 4.5 ×10^3/μl blood and 4.6 ×10^3/μl blood and 2.9 ×10^3/μl blood and 6.4 ×10^3/μl blood
same,White Blood Cell Counts,white blood cells; Cycle 2 Day 15,3.4 ×10^3/μl blood and 4.3 ×10^3/μl blood and 5.4 ×10^3/μl blood and 2.4 ×10^3/μl blood and 4.4 ×10^3/μl blood
same,White Blood Cell Counts,white blood cells; Cycle 3 Day 1,6.0 ×10^3/μl blood and 7.6 ×10^3/μl blood and 4.8 ×10^3/μl blood and 5.8 ×10^3/μl blood
same,White Blood Cell Counts,white blood cells; Cycle 3 Day 8,4.8 ×10^3/μl blood and 2.7 ×10^3/μl blood
same,White Blood Cell Counts,white blood cells; Cycle 3 Day 15,4.3 ×10^3/μl blood
same,White Blood Cell Counts,white blood cells; Cycle 4 Day 1,8.5 ×10^3/μl blood
same,White Blood Cell Counts,white blood cells; Cycle 4 Day 8,6.0 ×10^3/μl blood
same,White Blood Cell Counts,white blood cells; Screen,8.5 ×10^3/μl blood and 6.7 ×10^3/μl blood (2×) and 6.3 ×10^3/μl blood and 6.5 ×10^3/μl blood and 10.8 ×10^3/μl blood and 10.6 ×10^3/μl blood and 6.0 ×10^3/μl blood and 7.3 ×10^3/μl blood
